# Structures can show the parent of a compound that is named as a salt. Where two headings read alike, the source gives them in different places.
# How the values were obtained:
# [1] = tested on: RPMI8226 cell line; test: MTT cell proliferation assay, RPMI8226; format: cell-based; conditions: Homo sapiens, RPMI-8226, incubation approximately 64-72 hours
# Procedure: (§1) The MTT cell proliferation assay was used to study the cytotoxic properties of the compounds. The assay was performed according to the method described by Roche Molecular Biochemicals, with minor modifications. The assay is based on the cleavage of the tetrazolium salt, MTT, in the presence of an electron-coupling reagent. The water-insoluble formazan salt produced must be solubilized in an additional step. Cells grown in a 96-well tissue culture plate were incubated with the MTT solution for approximately 4 hours. After this incubation period, a water-insoluble formazan dye formed. After solubilization, the formazan dye was quantitated using a scanning multi-well spectrophotometer (ELISA reader). […] The cells were seeded at 5,000-10,000 cells in each well of 96-well plate in 100 μL of fresh culture medium and were allowed to attach overnight. The stock solutions of the compounds were diluted in 100 μL cell culture medium to obtain eight concentrations of each test compound, ranging from 1 nM to 30 μM. […] All optical densities were measured at 490 nm using a Vmax Kinetic Microplate Reader (Molecular Devices). In most cases, the assay was performed in duplicate and the results were presented as a mean percent inhibition to the negative control±SE. The following formula was used to calculate the percent of inhibition: Inhibition (%)=(1-(ODo/OD)) ×100. […]
# [2] = tested on: Hep G2 cells; test: MTT cell proliferation assay, Hep G2; format: cell-based; conditions: Homo sapiens, HepG2, incubation approximately 64-72 hours
# Procedure: (§2) The MTT cell proliferation assay was used to study the cytotoxic properties of the compounds. The assay was performed according to the method described by Roche Molecular Biochemicals, with minor modifications. The assay is based on the cleavage of the tetrazolium salt, MTT, in the presence of an electron-coupling reagent. The water-insoluble formazan salt produced must be solubilized in an additional step. Cells grown in a 96-well tissue culture plate were incubated with the MTT solution for approximately 4 hours. After this incubation period, a water-insoluble formazan dye formed. After solubilization, the formazan dye was quantitated using a scanning multi-well spectrophotometer (ELISA reader). […] The cells were seeded at 5,000-10,000 cells in each well of 96-well plate in 100 μL of fresh culture medium and were allowed to attach overnight. The stock solutions of the compounds were diluted in 100 μL cell culture medium to obtain eight concentrations of each test compound, ranging from 1 nM to 30 μM. […] All optical densities were measured at 490 nm using a Vmax Kinetic Microplate Reader (Molecular Devices). In most cases, the assay was performed in duplicate and the results were presented as a mean percent inhibition to the negative control±SE. The following formula was used to calculate the percent of inhibition: Inhibition (%)=(1-(ODo/OD)) ×100.
# The M24 cell line is derived from human melanoma cells. The U2OS cell line is a human osteosarcoma cell line expressing wild type p53 and Rb, but lacking p16. The MM1S cell line is a multiple myeloma cell line; the parent cell line, MM.1, was established from peripheral blood of a multiple myeloma patient who had become resistant to steroid-based therapy. The RPMI8226 cell line is derived from human B lymphocyte cells. NHDF cells are normal human dermal fibroblast cells. The MRC-5 cell line is derived from normal lung tissue of a fetus. The LN18 cell line is a human malignant glioma cell line. The DU-145 cell line is a human prostate cancer cell line. A549 cells are human adenocarcinomic human alveolar basal epithelial cells. The MOLT4 cell line is a human acute lymphoblastic leukemia cell line. The THP1 cell line is a human leukemic monocytic cell line derived from peripheral blood. The OCIAML5 cell line is a human acute myeloid leukemia cell line. The MDA-MB-231 cell line is a human breast adenocarcinoma cell line. The MDA-MB-468 cell line is a human breast carcinoma cell line. HL-60 cells are human promyelocytic leukemia cells. Hep G2 cells are human hepatocellular carcinoma cells. HEP 3B cells are human hepatocellular carcinoma cells. The DLD-1 cell line is a colorectal adenocarcinoma cell line. The HCT-15 cell line is a human colon carcinoma cell line. The Colo-205 cell line is derived from a human adenocarcinoma of the colon. […]
# [3] = tested on: PAK4 interactors and downstream proteins; test: Immunoblots of PAK4 interactors and downstream proteins in U2OS cells; format: cell-based, human; conditions: 72 hours
# Procedure: Immunoblots were used to measure the effects of exemplary compounds on protein steady-state levels and phophorylation of PAK4 interactor and downstream proteins. Specifically, U2OS (osteosarcoma) cells were split and plated on day 1. After overnight attachment to the tissue culture plate, cells were treated with either DMSO (0), 37 nM, 111 nM, 333 nM, 1 μM, or 3 μM Compound 246 for 72 hours. Cells were collected, washed and lysed in RIPA buffer. After obtaining the protein concentration by BCA assay, lysates were boiled in loading buffer and run on SDS-PAGE. The gels were transferred to nitrocellulose membranes and blotted with antibodies raised against phosphor-PAK4, PAK4, phophos-beta-catenin, beta-catenin, GEF-H1, phospho-Akt, Akt, phospho-ERK1/2, ERK1/2, phospho-cofilin, cofilin, phospho-histone H3, histone H3, cyclin D1, Mcl-1, Bcl-2, p21, survivin, caspase 8, caspase 3, PARP, and beta-actin (loading control).
# In another experiment, U2OS (osteosarcoma) cells were split and plated on day 1. After overnight attachment to the tissue culture plate, cells were treated with DMSO (Ct), 0.5 μM, or 5 μM of Compound 124, 369, 226, 246, or 907 for 72 hours. Cells were collected, washed and lysed in RIPA buffer. After obtaining the protein concentration by BCA assay, lysates were boiled in loading buffer and run on SDS-PAGE. The gels were transferred to nitrocellulose membranes and blotted with antibodies raised against phophos-beta-catenin, cyclin D1, PAK4, phospho-cofilin, and beta-actin (loading control).
# [4] = tested on: Z138 cells; test: MTT cell proliferation assay, Z138; format: cell-based; conditions: Homo sapiens
# Method in brief: (§3)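 Cells were seeded at 5,000-10,000 per well, left to attach overnight, then exposed to eight compound concentrations from 1 nM to 30 μM. After about 4 h with MTT, solubilized formazan was read at 490 nm and percent inhibition versus negative control was calculated.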
# [5] = tested on: 3T3 cells; test: MTT cell proliferation assay, 3T3; format: cell-based, mouse; conditions: Mus musculus
# Method in brief: as §3
# [6] = tested on: MM1S cell line; test: MTT cell proliferation assay, MM1S; format: cell-based; conditions: Homo sapiens, MM1.S, incubation approximately 64-72 hours
# Procedure: as §2
# (§4) The M24 cell line is derived from human melanoma cells. The U2OS cell line is a human osteosarcoma cell line expressing wild type p53 and Rb, but lacking p16. The MM1S cell line is a multiple myeloma cell line; the parent cell line, MM.1, was established from peripheral blood of a multiple myeloma patient who had become resistant to steroid-based therapy. The RPMI8226 cell line is derived from human B lymphocyte cells. NHDF cells are normal human dermal fibroblast cells. The MRC-5 cell line is derived from normal lung tissue of a fetus. The LN18 cell line is a human malignant glioma cell line. The DU-145 cell line is a human prostate cancer cell line. A549 cells are human adenocarcinomic human alveolar basal epithelial cells. […]
# [7] = tested on: HEP 3B cells; test: MTT cell proliferation assay, HEP 3B; format: cell-based; conditions: Homo sapiens, Hep3B, incubation approximately 64-72 hours
# Procedure: as §2, §4
# [8] = tested on: NHDF cells; test: MTT cell proliferation assay, NHDF; format: cell-based; conditions: Homo sapiens, incubation approximately 64-72 hours
# Procedure: as §1
# [9] = tested on: M24 cell line; test: MTT cell proliferation assay, M24; format: cell-based; conditions: Homo sapiens, incubation approximately 64-72 hours
# Procedure: as §1
# [10] = tested on: MS751 cells; test: MTT cell proliferation assay, MS751; format: cell-based, human; conditions: Homo sapiens
# Method in brief: as §3
# [11] = tested on: HL-60 cells; test: MTT cell proliferation assay, HL-60; format: cell-based; conditions: Homo sapiens, incubation approximately 64-72 hours
# Procedure: as §1
# [12] = tested on: U2OS cell line; test: MTT cell proliferation assay, U2OS; format: cell-based; conditions: Homo sapiens, incubation approximately 64-72 hours
# Procedure: as §1
# [13] = tested on: Z-138 mantle cell lymphoma cancer xenograft; test: Z-138 mouse xenograft model; format: in vivo; conditions: QDx5/week for 4 weeks, SCID mice with Z-138 tumors; for tumor growth (mean tumor volume): versus cyclophosphamide 80 mg/kg Days 1-3
# Procedure: The oncological impact of selected substituted 2,3-dihydrobenzofuranyl compounds was tested using a Z-138 mantle cell lymphoma cancer xenograft model in SCID mice. SCID Mice were inoculated s.c. in both flanks with 5×10^6 Z-138 cells. When the tumors reached a mean size of between 100 and 200 mm^3, mice were randomly and prospectively divided. Tumor-bearing mice were treated with vehicle, cyclophosphamide (positive control) or Compound 123 on M-F (QDx5/week) for 4 weeks. Compound 123 was administered orally (PO) at initial doses of 30 and 100 mg/kg five times a week. Cyclophosphamide was given as a positive control at 80 mg/kg on Days 1-3. Animals' weights and conditions were recorded daily, and tumors were measured on Mondays-Wednesdays-Fridays.
# [14] = tested on: Z-138 cells; test: Cell cycle arrest (BrdU / 7-AAD flow cytometry); format: cell-based; conditions: 1 μM for 1, 2 and 3 days
# Procedure: Z-138 cells (mantle cell lymphoma) were plated at a density of 1×10^6 cells/well and treated with no drug (DMSO control) or with 1 μM Compound 123 for 1, 2, and 3 days in culture. For each time point, cells were treated with 10 μM BrdU for 2 hours, then collected by centrifugation. Cells were subsequently washed, fixed, and then stained for BrdU and total DNA (7-AAD). BrdU incorporation and cell cycle analysis were analyzed by flow cytometry at the Dana Farber Cancer Institute on a BD Fortessa Analyzer. Data was then analyzed using FCS Express 4 software.
# FIGS. 1A, 1B, 1C and 1D are single-cell scatter plots and show BrdU versus 7-AAD for Z138 cells treated with no drug (FIG. 1A) or treated with 1 μM Compound 123 for 1 day (FIG. 1B), 2 days (FIG. 1C), or 3 days (FIG. 1D). Graphs showing cell count versus 7-AAD intensities are depicted below their corresponding scatter plots.
smiles,measurement,setting,value
"Nc1ccc(/C=C/C(=O)NCC2Cc3cc(-c4ccc(C(=O)N5CCNCC5)cc4)cc(Cl)c3O2)cn1 (stereo not shown) [Compound 246, (E)-3-(6-aminopyridin-3-yl)-N-((7-chloro-5-(4-(piperazine-1-carbonyl)phenyl)-2,3-dihydrobenzofuran-2-yl)methyl)acrylamide dihydrochloride]",IC50,[1],0.1 to 5 µM
same,IC50,[2],0.1 to 5 µM
same,PAK4 total protein,[3]; 37 nM to 3 μM,decrease
same,"cleavage of apoptosis markers caspase 3, caspase 8 and PARP",[3]; 37 nM to 3 μM,increases in cleavage
same,"phosphorylation or total level of PAK4 signaling proteins (Akt, ERK1/2, beta-catenin, cofilin, p21, cyclin D1)",[3]; 37 nM to 3 μM,decrease in phosphorylation or the total level
same,PAK4 total protein,[3]; 0.5 μM or 5 μM,decrease
same,phosphorylation of PAK4 signaling proteins beta-catenin and cofilin,[3]; 0.5 μM or 5 μM,decreases in phosphorylation
same,IC50,"[4]; Z-138, read-out: MTT Assay IC50, Z138",< 0.1 µM
same,IC50,"[5]; NIH3T3, read-out: MTT Assay IC50, 3T3",0.1 to 5 µM
same,IC50,[6],< 0.1 µM
same,IC50,[7],< 0.1 µM
same,IC50,[8],0.1 to 5 µM
same,IC50,[9],0.1 to 5 µM
same,IC50,"[10]; MS751, read-out: MTT Assay IC50, MS751",< 0.1 µM
same,IC50,[11],0.1 to 5 µM
same,IC50,[12],< 0.1 µM
"CC(=O)c1ccc(-c2cc(Cl)c3c(c2)CC(CNC(=O)/C=C/c2cccnc2)O3)s1 (single isomer, unassigned) [Compound 123, (E)-N-((5-(5-acetylthiophen-2-yl)-7-chloro-2,3-dihydrobenzofuran-2-yl)methyl)-3-(pyridin-3-yl)acrylamide]",IC50,"[4]; Z-138, Z138 cells, eight concentrations 1 nM to 30 μM, incubation approximately 64-72 hours, read-out: MTT Assay IC50, Z138",< 0.1 µM
same,IC50,"[5]; NIH3T3, 3T3 cells, eight concentrations 1 nM to 30 μM, incubation approximately 64-72 hours, read-out: MTT Assay IC50, 3T3",0.1 to 5 µM
same,tumor growth (mean tumor volume),[13]; 30 mg/kg PO,inhibited tumor growth with an efficacy better than that of cyclophosphamide
same,tumor growth (mean tumor volume),[13]; 100 mg/kg PO,inhibited tumor growth with an efficacy similar to cyclophosphamide
same,tolerability (mean percent weight change),[13]; 30 and 100 mg/kg PO,tolerated at both doses
same,G1,[14],no change
same,G2/M,[14],increased
same,S phase,[14],significant decrease
same,sub-G1 fraction,[14],small increase
same,IC50,"[10]; MS751, MS751 cells, eight concentrations 1 nM to 30 μM, incubation approximately 64-72 hours, read-out: MTT Assay IC50, MS751",< 0.1 µM
"CC(=O)c1ccc(-c2cc(Cl)c3c(c2)CC(CNC(=O)CCc2cccnc2)O3)s1 (stereo not shown) [Compound 369, N-((5-(5-Acetylthiophen-2-yl)-7-chloro-2,3-dihydrobenzofuran-2-yl)methyl)-3-(pyridin-3-yl)propanamide]",PAK4 total protein,[3]; 0.5 μM or 5 μM,decrease
same,phosphorylation of PAK4 signaling proteins beta-catenin and cofilin,[3]; 0.5 μM or 5 μM,decreases in phosphorylation
same,IC50,"[4]; Z-138, Z138 cells, approximately 64-72 hours incubation, read-out: MTT Assay IC50, Z138",0.1 to 5 µM
same,IC50,"[5]; NIH3T3, 3T3 cells, approximately 64-72 hours incubation, read-out: MTT Assay IC50, 3T3",5 to 30 µM
same,IC50,"[10]; MS751, MS751 cells, approximately 64-72 hours incubation, read-out: MTT Assay IC50, MS751",0.1 to 5 µM

# Source: patent US9938258B2 (Karyopharm Therapeutics Inc., priority 2012, dated 2018)
